Values of other authors as cited in US7939518B2, “Method of treating post-surgical acute pain” (Aaipharma Inc., priority 2008, dated 2011).

Tested on: cyclo-oxygenase

In the case of `O=C(O)Cc1ccccc1Nc1c(Cl)cccc1Cl` [Diclofenac], the “Concentrations at which cyclo-oxygenase is inhibited” value is given as “micromolar concentrations”.
